One assay relates to IL-1β. Description: Intracellular IL-1β estimation in LPS activated murine neutrophils (flow cytometry). The format is cell-based. As to conditions: 5 μg/ml, LPS 1 μg/ml, 3 h, ↑ upregulation. The procedure: (§1) Flowcytometric studies were carried out to determine the anti-inflammatory effect of active constituents of Withania somnifera extract on TNF-α and IL-1β cytokine expression in LPS activated murine neutrophils.
(§2) TNF-α and Interleukin 1 beta (IL-1β) cytokines play a major role in the pathogenesis of septic shock induced by LPS (Lipopolysaccharide) endotoxin injection. LPS is an important triggering factor for in vivo systemic inflammatory response. LPS activates neutrophils via engagement of TLR4 (Toll-like receptor 4), resulting in the induction of a characteristic proinflammatory phenotype and prolongation of cell lifespan. In brief, neutrophils extraction was performed by taking murine blood and centrifuging it at 250 g for 20 min. Middle layer was taken and layered with histopaque and incubated for 10 min. The samples were centrifuged at 700 g, the upper layer was taken and Facs Lysing solution added for the lysis of any traces of RBC. The samples were washed with PBS (200 g) for 10 min. Neutrophils were stimulated with. LPS (1 μg/ml) and incubated with test samples for 3 h, in CO2 incubator. […] A fluorescence trigger was set on the […] parameter of the gated neutrophil populations (10,000 events). Fluorescence compensation, data analysis, and data presentation was performed using Cell Quest Pro software (Beckton—Dickinson Biosciences, CA, USA). […]

For another assay, the system named is C3b. The experiment in a line: Complement activation product C3b in serum (ELISA), chronic zymosan peritonitis. The format is in vivo, mouse. As to conditions: 2 mg/kg. The procedure: (§3) Peritoneal inflammation was induced by Zymosan A (Sigma Chemical) (Masashi et al. Zymosan, but Not Lipopolysaccharide, Triggers Severe and Progressive Peritoneal Injury Accompanied by complement Activation in a Rat Peritonitis Model) was prepared freshly in sterile, 0.9% w/v saline, and 0.5 ml was injected i.p. from day 0 to Day 5. The lymphocyte population in the peripheral blood was determined with a flow cytometer. Cells were phenotyped by flow cytometry with the following primary antibodies: CD4 (FITC) and CD8 (PE). Cells were gated broadly on all live lymphocyte cells, with only debris and multiple cell clusters being excluded. Analysis of mean fluorescence intensity was done and percentage cell population was evaluated. The test drugs were administered for 30 days after the induction of peritonitis. On 36th day the peritoneal cavity was lavaged with 1.5 ml saline, and after a 30-s gentle manual massage, 0.5 ml exudate was retrieved, centrifuged at 3000 g for 3 min, and frozen at 220° C. prior to cytokine and chemotactic-factor assessment.
Complement activation is a system of more than 30 proteins in the plasma and on cell surfaces. The activation takes place by three pathways, classical, lectin, and alternative. […]

The next assay relates to CD8+ T cells. The experiment in a line: Zymosan peritonitis chronic study: peripheral blood CD8+ T cell population (flow cytometry). It counts as in vivo, mouse. As to conditions: Withanone 2 mg/kg, day 36. How it is done:
as §3, with “On 36th day the peritoneal cavity was lavaged with 1.5 ml saline, and after a 30-s gentle manual massage, 0.5 ml exudate was retrieved, centrifuged at 3000 g for 3 min, and frozen at 220° C. prior to cytokine and chemotactic-factor assessment.” left out
Flow cytometry enables the characterization of cells and subcellular organelles on the basis of size and granularity and a number of different parameters defined by fluorescent probes. […] Fluorochrome labelled monoclonal antibodies directed against co-receptors CD4 and CD8 were used to quantify the lymphocyte subsets in a multiparametric flow cytometric assay. […]

In assay [1] the test system is Klebsiella pneumoniae (Gram-negative). Description: Bacterial translocation from the gut into organs: K. pneumoniae. It counts as in vivo. As to conditions: Withanone 2 mg/kg; positive/6 mice. How it is done:
as §3
Intestine serves as a barrier in preventing gut bacteria and/or endotoxin from spreading to organs and tissues. It is also known that bacterial translocation occurs in critically ill or immunocompromised patients, and the physical disruption of mucosal barrier in vivo rodent models seem to be a key factor Tor translocation (Deitch et al. Effect of hemorrhagic shock on bacterial translocation, intestinal morphology, and intestinal permeability in conventional and antibiotic-decontaminated rats; Critical Care Medicine; 1990 18(5)). Bacterial translocation from the gut into the peritoneal cavity and organs was analyzed. The mesenteric lymph nodes, liver, and spleen of mice, study group of 30, were removed using sterile instruments. The organs were then homogenized in 1 ml of sterile cooked meat broth and 50 μl of organ homogenate was spread on blood agar plates to detect aerobic bacteria and Eosin Methylene blue agar plates to detect specially for E. coli. These plates were then incubated at 37° C. for 2 days. […]

The test system of another assay is TNF-α. The experiment in a line: Intracellular TNF-α estimation in LPS activated murine neutrophils (flow cytometry). The format is cell-based. The following applies: 5 μg/ml, LPS 1 μg/ml, 3 h, ↑ upregulation. How it is done:
as §1, §2

In the case of `CC1=C(C)C(=O)O[C@@H]([C@@H](C)[C@@]2(O)CC[C@H]3[C@@H]4[C@@H]5O[C@@H]5[C@@]5(O)CC=CC(=O)[C@]5(C)[C@H]4CC[C@@]32C)C1` [Withanone], the “Percentage IL-1β inhibition compared to LPS control” value in the assay on IL-1β is given as 32%. The “Inhibition of complement activation product C3b compared to the Zymosan control” value in the assay with C3b is 44%. Besides, in the assay with CD8+ T cells, the “Inhibition of CD8+ compared to T cell population of Zymosan control” value is reported as 44%. Also, in assay [1], the “Bacterial translocation, Liver, k. pneumonia” value was 0/6; the “Bacterial translocation, Mesenteric Lymph Nodes, k. pneumonia” value is recorded as 0/6; the “Bacterial translocation, Spleen, k. pneumonia” value is 1/6. In the assay with TNF-α, the “Percentage TNF-α inhibition compared to LPS control” value was 53%.

Values taken from patent publication US20230404969A1, “COMPOSITIONS AND METHOD FOR EFFECTIVE MANAGEMENT OF PERITONITIS” (priority 2022, published 2023).
